In one test the test system is MEL624. Kind of test: qPCR of endogenous Wnt target gene AXIN2, MEL624. Format: cell-based, human. The following applies: WNT3A CM, 2 μM PLX4720, 24 hours. An excerpt:
(§1) RNA purification and qRT-PCR analysis. RNA was purified using the RNeasy kit following the manufacturer's protocol (Qiagen; Maryland, Md.). cDNA was synthesized using RevertAid™ M-MuLV Reverse Transcriptase (Fermentas; Ontario, CAN). Light Cycler FastStart DNA Master SYBR Green1 (Roche; Mannheim, Germany) was used for real-time PCR as previously described (53). Quantitative PCR results presented in the manuscript are averages of a minimum of three biologic replicates.

In the next test the test system is A375 cells. Kind of test: TUNEL assay. The test is classed as cell-based, human. The procedure: TUNEL. Glass coverslips were coated with poly-L-lysine in a 24-well dish, rinsed with PBS, and dried. Cells were seeded at a density to achieve 90-100% at harvest. 24 hours after seeding, cells were treated with the indicated conditions and incubated for 24 hours. TUNEL staining was performed according to vendor's protocol (cat#12 156 792 910) (Roche Indianapolis, Ind.). Briefly, media was gently aspirated and cells were fixed in 4% paraformaldehyde for 1 hour at room temperature. Cells were gently rinsed twice with PBS and permeabilized with 0.1% Triton X-100 in 0.1% sodium citrate for 2 minutes on ice. Cells were rinsed twice with PBS, and 40 uL of TUNEL reaction mixture was added directly on top of the slide and incubated for 1 hour at 37° C. in a humidified incubator. Slips were rinsed 3 times and mounted on superfrost plus glass slides (cat#48311-703 VWR West Chester, Pa.) with Prolong Gold anti-fade mounting media containing DAPI (cat# P36931 Invitrogen; Grand Island, N.Y.). Images were obtained on a Nikon TiE inverted widefield high-resolution microscope (Nikon Melville, N.Y.).

A further test relates to β-catenin. Kind of test: Cytosolic and nuclear β-catenin fractionation. Format: cell-based, human. Conditions: A375, 24 hours. The protocol:
Cytosolic and Nuclear β-catenin Fractionation. Cells were plated in 100 mm dishes. 24 hours following plating, cells were treated with the indicated conditions for 24 hours. Cells were gently rinsed with PBS and harvested by scraping in 500 uL of hypotonic lysis buffer (50 mM HEPES pH 8.0, 1 mM EDTA, 1 mM DTT) containing protease and phosphatase inhibitors. Cells were swelled on ice for 30 minutes and then passed through a 27 gauge needle ten times and checked for complete lysis with a microscope. Lysates were centrifuged at 10,000×g for 20 minutes and supernatant was collected as the cytosolic fraction. Pelleted membranes were washed 5 times with hypotonic lysis buffer and then solubilized with solubilization buffer (50 mM Tris pH 8.0, 150 mM NaCl, 0.1% SDS, 0.5% sodium deoxycholate, 1% Triton X-100) containing protease and phosphatase inhibitors. After a 30 minute incubation on ice, lysates were centrifuged at 16,000×g for 20 minutes. The protein concentration of the cleared supernatant was determined by BCA analysis and an equal amount of protein and volume was then incubated with pre-washed Con A sepharose beads overnight at 4 degree C. Supernatant was collected as the nuclear fraction.

For a further test, the system named is ERK1/2 phosphorylation. Put plainly: ERK1/2 phosphorylation in human epidermal melanocytes. Format: cell-based. Conditions: HEMs. The source says:
Cell Lines. The human melanoma cell lines A375, A2058 and Me1624 were obtained from Cassian Yee (Fred Hutchinson Cancer Research Institute; Seattle, Wash.). The human melanoma cell lines COLO-829, SKMEL28, SKMEL5 were purchased from ATCC (Manassas, Va.). Human Epidermal Melanocytes, adult, lightly pigmented donor, (HEMa-LP) (C0245C) were purchased from Invitrogen (Carlsbad, Calif.). Stable BAR cell lines were generated as previously described (23). BAR luciferase cell lines were also infected with a lentivirus carrying Renilla luciferase driven by a constitutive EFlalpha promoter.
Cell Culture. The human melanoma lines A375, A2058 were cultured in DMEM supplemented with 5% FBS and 1% antibiotic. The human melanoma lines SK-MEL-5 and SK-MEL-28 were grown in EMEM supplemented with 10% FBS and 1% antibiotic. The human melanoma lines COLO-829 and MEL-624 were grown in RPMI supplemented with 10% FBS and 1% antibiotic HEMa-LP cells were cultured in medium 254 supplemented with 1% HMGS and 1% antibiotic (Invitrogen Carlsbad, Calif.). Synthetic siRNAs were transfected into cultured cells at a final concentration of 20 nM using RNAiMAX (Invitrogen; Grand Island, N.Y.).

The test system of test [1] is human epidermal melanocytes (HEM). Kind of test: qPCR of endogenous Wnt target gene AXIN2, human epidermal melanocytes (HEM). Format: cell-based. Conditions: WNT3A CM, 2 μM PLX4720, 24 hours.
Source text: as §1

The structures appear in SMILES notation.

Consider `CCCS(=O)(=O)Nc1ccc(F)c(C(=O)c2c[nH]c3ncc(Cl)cc23)c1F` [PLX4720, N-[3-[(5-Chloro-1H-pyrrolo[2,3-b]pyridin-3-yl)carbonyl]-2,4-difluorophenyl]-1-propanesulfonamide], for which, in the test on MEL624, the “SYNERGISTIC WNT ACTIVATION WITH PLX4720?” value is “YES”. Besides, the TUNEL staining result is recorded as “minimal TUNEL-positivity” in the test on A375 cells (A375, agents individually); “presence of apoptotic cell death” in the test on A375 cells (WNT3A and 2 μM PLX4720, 24 hours). Besides, the “steady-state levels of cytosolic or nuclear β-catenin” value with β-catenin is “did not result in increased steady-state levels of cytosolic or nuclear β-catenin”. For the same compound, in the test on ERK1/2 phosphorylation, the ERK1/2 phosphorylation entry is reported as “no effect”. In test [1], the AXIN2 transcript levels entry is recorded as “did not exhibit any increase in AXIN2 transcript levels”.

(Values after patent US20120059021A1, “COMPOSITIONS AND METHODS FOR TREATING CANCER AND METHODS FOR PREDICTING A RESPONSE TO SUCH TREATMENTS” (UNIVERSITY OF WASHINGTON, priority 2008, published 2012).)
